Literature values, collected in US20040234544A1, “Formulation containing (lyso-)phosphatidylserine for the prevention and treatment of stress states in warm blooded animals” (priority 2001, published 2004).
Like-named read-outs stand apart in the source and are kept apart here.

Tests used:
young adults = settings: 300 mg PS per day
trained runners = settings: 300 or 600 mg PS per day over 15 days
persons under 40 years = persons under 40 years and persons whose brain function was average for their age

## phosphatidylserine
Young adults
  mood: positive effect
  pulse rate: positive effect
  subjective stress sensitivity: positive effect
rats; old rats
  effect in stress-induced behaviour (body temperature): normalization of body temperature
rats; older rats
  effect in lesions of the stomach wall: positive effect
rats; young rats
  effect in lesions of the stomach wall: this effect was not observed
Trained runners
  effect against muscle damage: protective effect against muscle damage
Persons under 40 years
  improvements under PS supplementation: no improvements were observed
